# Publication PMC11566078, “Bactericidal activities and biochemical features of 16 antimicrobial peptides against bovine-mastitis causative pathogens” (Veterinary Research, 2024)
# Where two headings read alike, the source gives them in different places. Where no end group is shown, it is not given here.
# Tests used:
# [1] = tested on: Staphylococcus haemolyticus; assay: MIC against field isolate from milk with high SCC; type: cell-based; conditions: Staphylococcus haemolyticus, read-out: Minimal inhibitory concentration, Staphylococcus haemolyticus
# Experimental: (§1) All plates were cultivated aerobically.
# (§2) Experiments were conducted in triplicate.
# [2] = tested on: Staphylococcus epidermidis; assay: microbe, parasite or virus in culture; type: cell-based
# Experimental: as §1, §2
# Corynebacterium simulans = assay: microbe, parasite or virus in culture; type: cell-based
# Experimental: as §1, §2
# Streptococcus uberis = assay: microbe, parasite or virus in culture; type: cell-based
# Experimental: as §1, §2
# [3] = tested on: Staphylococcus chromogenes; assay: microbe, parasite or virus in culture; type: cell-based; conditions: for MIC: Staphylococcus chromogenes, read-out: Minimal inhibitory concentration, Staphylococcus chromogenes
# Experimental: as §1, §2
# Staphylococcus xylosus = assay: microbe, parasite or virus in culture; type: cell-based; conditions: for MIC: Staphylococcus xylosus, read-out: Minimal inhibitory concentration, Staphylococcus xylosus
# Experimental: as §1, §2
# [4] = tested on: Glutamicibacter halophytocola; assay: microbe, parasite or virus in culture; type: cell-based
# Experimental: as §1, §2
# Aeromonas hydrophila = assay: microbe, parasite or virus in culture; type: cell-based; conditions: Aeromonas hydrophila; Gram-negative field isolate from milk; BHI broth; WST colourimetric, 37 °C 6 h; triplicate; read-out: Minimal inhibitory concentration, Aeromonas hydrophila
# Experimental: as §1, §2
# [5] = tested on: Enterococcus faecalis ATCC 29212; assay: microbe, parasite or virus in culture; type: cell-based
# Experimental: (§3) The standard bacterial strains used for antimicrobial activity assays include Staphylococcus aureus ATCC (American Type Culture Collection, Manassas, VA, USA) 6538, Bacillus cereus ATCC 10876, Enterococcus faecalis ATCC 29212, Streptococcus […] 27956, Streptococcus dysgalactiae ATCC 27957, Streptococcus equi subsp. zooepidemicus ATCC 43079, Escherichia coli ATCC 25922, and Pseudomonas aeruginosa ATCC 27853. Most bacterial strains were cultured in LB medium except for E. faecalis and streptococci, which were cultivated in brain heart infusion (BHI) broth (BD Bioscience). […] Experiments were conducted in triplicate.
# [6] = tested on: Streptococcus agalactiae ATCC 27956; assay: microbe, parasite or virus in culture; type: cell-based
# Experimental: as §3
# [7] = tested on: Pseudomonas aeruginosa ATCC 27853; assay: microbe, parasite or virus in culture; type: cell-based
# Experimental: as §3
# [8] = tested on: Escherichia coli ATCC 25922; assay: microbe, parasite or virus in culture; type: cell-based; conditions: Escherichia coli, ATCC25922, 8 h, MH broth, WST colourimetric, 1.5 × 10^5 cells/well, 37 °C 6 h + 2 h reagent, A450, triplicate, read-out: Minimal inhibitory concentration, Escherichia coli
# Experimental: as §3
# [9] = tested on: Bacillus cereus ATCC 10876; assay: microbe, parasite or virus in culture; type: cell-based
# Experimental: as §3
# [10] = tested on: Streptococcus equi subsp. zooepidemicus ATCC 43079; assay: microbe, parasite or virus in culture; type: cell-based
# Experimental: as §3
# [11] = tested on: Staphylococcus aureus ATCC 6538; assay: microbe, parasite or virus in culture; type: cell-based
# Experimental: as §3
# [12] = tested on: Streptococcus dysgalactiae ATCC 27957; assay: microbe, parasite or virus in culture; type: cell-based
# Experimental: as §3
# [13] = tested on: all bacterial strains in the panel and field isolates from milk; type: cell-based; conditions: against all bacterial strains in the panel and field isolates from milk
# Experimental: The standard bacterial strains used for antimicrobial activity assays include Staphylococcus aureus ATCC (American Type Culture Collection, Manassas, VA, USA) 6538, Bacillus cereus ATCC 10876, Enterococcus faecalis ATCC 29212, Streptococcus agalactiae ATCC 27956, Streptococcus dysgalactiae ATCC 27957, Streptococcus equi subsp. zooepidemicus ATCC 43079, Escherichia coli ATCC 25922, and Pseudomonas aeruginosa ATCC 27853. Most bacterial strains were cultured in LB medium except for E. faecalis and streptococci, which were cultivated in brain heart infusion (BHI) broth (BD Bioscience).
# as §1, §2
# [14] = tested on: field isolates from milk with high SCCs; conditions: all field isolates except A. hydrophila; range stated for the three peptides
# Experimental: The minimum inhibitory concentration (MIC) was determined by following the manufacturer’s protocol and Clinical and Laboratory Standards Institute (CLSI) guidelines (2018) using a colourimetric method specified by the Microbial Viability Assay Kit-WST (Dojindo, Kumamoto, Japan). Four colonies of each bacterium were inoculated into 5 mL of LB medium and incubated at 37 °C for 4–6 h. The cells were then washed twice with sterile saline (0.9% NaCl) and seeded into a single well of a 96-well plate at a density of 1.5 × 10^5 cells/well, adjusting by McFarland standard 0.5. Subsequently, 180 µL/well of fresh MH broth (BD Bioscience) was added to the plate. Ampicillin, chloramphenicol, and gentamicin sulfate were used as controls for antimicrobial activity.
# Different concentrations of each peptide and reference antibiotics (up to 40 µg/mL) were serially diluted in 10 µL of MH broth and added to each well. The plate was incubated at 37 °C for 6 h, using BHI broth to culture slow-growing fastidious strains, including E. faecalis, A. hydrophila, C. simulans, G. halophytocola, and streptococci. Cation-adjusted Mueller Hinton II broth (CAMHB) was employed to cultivate P. aeruginosa. Afterwards, 10 µL of the colouring reagent was added, and cells were incubated at 37 °C for 2 h. UV absorbance was measured for each well at 450 nm using a microplate spectrophotometer (xMark spectrophotometer; Bio-Rad, Hercules, CA, USA). The MIC values were determined when the absorbance difference between treatments and blanks (media and colouring reagent only) decreased to < 0.05. Experiments were conducted in triplicate.
# HaCaT cells = assay: Cytotoxicity, WST-1 cell viability; conditions: 24 h, 37 °C, repeated three times
# Experimental: (§4) Human keratinocytes (HaCaT) and pig kidney fibroblast cells (PK15, ATCC CCL-33) were cultured in Dulbecco’s modified Eagle’s medium (DMEM; Hyclone™, Logan, UT, USA) and supplemented with 10% foetal bovine serum (FBS; Hyclone™, Logan, UT, USA), 1% penicillin–streptomycin (Hyclone™) at 37 °C, and 5% CO2 up to 80% confluence. Cell substratum adhesion was disrupted using Accutase (Innovative Cell Technologies, San Diego, CA, USA). A total of 4 × 10^4 cells were incubated for 24 h at 37 °C and 5% CO2 in each well of a 96-well plate containing 64 and 160 µg/mL of each peptide.
# (§5) A positive control for complete cell lysis was established using Triton-X100 (1%), and untreated cells were used as the negative control. After incubation, the medium was removed from the wells and replaced with 10 µL of colouring solution (Cell Proliferation Reagent WST-1™) and 100 µL of DMEM (Hyclone™), per the manufacturer’s protocol. Each well absorbance was measured at 440 nm (peptide-treated and control) and 650 nm (background). These measurements were recorded as the optical density (OD) using a microplate reader (xMark™ spectrophotometer; Bio-Rad, CA, USA). Cell viability was calculated using the following equation: CellViability(%)=100×(ODpeptide-ODbackground)/(ODnegative-ODbackground)
# (§6) All experiments were performed in triplicate.
# bovine erythrocytes = assay: Haemolytic activity; type: cell-based; conditions: OD 410 nm, repeated three times
# Experimental: The experimental procedures were conducted in accordance with the guidelines approved by the Institutional Animal Care and Use Committee (IACUC) of Konkuk University, Seoul, Korea, and bovine blood was collected from a cow at a local farm using a BD Vacutainer® Sodium Heparin (BD Bioscience) to analyse haemolytic activity. Plasma was removed from the whole blood by centrifugation. Erythrocytes were washed thrice with phosphate-buffered saline (PBS, pH 7.4) and resuspended in PBS at a concentration of 2% (v/v). Subsequently, 100 µL of the erythrocyte suspension was added to each well of a 96-well microtiter plate. The plate contained an equal volume of the peptides in PBS with different concentrations of 10, 20, 40, 80, and 160 μg/mL. Triton-X 100 (1%) and PBS were used as positive and negative controls, respectively. Plates were incubated at 37 °C for 1 h. The release of haemoglobin into the supernatant was monitored by measuring the change in OD at 410 nm using a microplate reader (xMark™ spectrophotometer; Bio-Rad). Results from three independent experiments were pooled. Hemolysis was calculated using the formula: HemolyticPercentage(%)=100×(ODpeptide-ODnegative)/(ODpositive-ODnegative)
# All experiments were carried out in triplicate.
# E. coli (ATCC 25922) = type: in vitro ADME, Escherichia coli
# Experimental: The MICs against E. coli (ATCC 25922) for cc-CATH3, ML-CATH, and PD-CATH in 150 mM NaCl and different pH (pH 5, 6, and 7) that were adjusted using acetic acid (Sigma Aldrich) were determined as described above. For serum stability assay, each AMP at four different concentrations was dissolved in 50% (v/v) FBS (Hyclone™) and incubated at 37 °C for 0, 60, and 120 min, respectively. As described in a previous study, ΔHg-CATH was used as a control for serum sensitivity. The antimicrobial activity of cc-CATH3, ML-CATH, and PD-CATH against E. coli was assessed for each condition as above. All experiments were conducted in triplicate.
# Figure 2 Changes in the antibacterial activity of cc-CATH3, ML-CATH, and PD-CATH after incubation with naïve serum. cc-CATH3, ML-CATH, and PD-CATH peptides were incubated in 50% (v/v) FBS each for 0, 60, and 120 min before applying to antimicrobial activity assay against E. coli (ATCC 25922). The antimicrobial activity was determined by measuring bacterial growth at OD 450 nm. The X and Y axes indicate peptide concentration and absorbance at 450 nm, respectively. Samples containing 50% FBS in the absence of the peptides indicate a control for bacterial growth without AMP treatments. The antimicrobial activity of cc-CATH3 (A), ML-CATH (B), and PD-CATH (C) after the treatment of FBS-incubated AMPs was shown.
# [15] = tested on: eight standard bacterial strains; type: cell-based; conditions: all eight standard strains; range stated for the three peptides
# Experimental: as §3
# PK15 cells = assay: Cytotoxicity, WST-1 cell viability; conditions: 24 h, 37 °C, repeated three times
# Experimental: as §4, §5, §6
# [16] = field isolate from milk, WST colourimetric, 37 °C 6 h, triplicate
# [17] = value in brackets, Additional file 6, field isolate
compound,measurement,setting,value
"CNC(C)C1CCC(N)C(OC2C(N)CC(N)C(OC3OCC(C)(O)C(NC)C3O)C2O)O1 (centres unmarked) [Gentamicin, reference compound]",MIC,[1]; [16],10 µg/mL
same,MIC,[1]; [17],20.9 nM
same,MIC,"[2]; Staphylococcus epidermidis, field isolate from milk, WST colourimetric, 37 °C 6 h, triplicate, read-out: Minimal inhibitory concentration, Staphylococcus epidermidis",4 µg/mL
same,MIC,"Corynebacterium simulans; Corynebacterium simulans, field isolate from milk, BHI broth, WST colourimetric, 37 °C 6 h, triplicate, read-out: Minimal inhibitory concentration, Corynebacterium simulans",10 µg/mL
same,MIC,"Streptococcus uberis; Streptococcus uberis, field isolate from milk, BHI broth, WST colourimetric, 37 °C 6 h, triplicate, read-out: Minimal inhibitory concentration, Streptococcus uberis",60 µg/mL
same,MIC,[3]; [16],2 µg/mL
same,MIC,[3]; [17],4.2 nM
same,MIC,Staphylococcus xylosus; [16],1 µg/mL
same,MIC,Staphylococcus xylosus; [17],2.1 nM
same,MIC,"[4]; Glutamicibacter halophytocola, field isolate from milk, BHI broth, WST colourimetric, 37 °C 6 h, triplicate, read-out: Minimal inhibitory concentration, Glutamicibacter halophytocola",3 µg/mL
same,MIC,Aeromonas hydrophila,4 µg/mL
same,MIC,"[5]; Enterococcus faecalis, ATCC29212, ATCC 29212, BHI broth, WST colourimetric, 37 °C 6 h, triplicate, read-out: Minimal inhibitory concentration, Enterococcus faecalis",90 µg/mL
same,MIC,"[6]; Streptococcus agalactiae, ATCC27956, ATCC 27956, BHI broth, WST colourimetric, 37 °C 6 h, triplicate, read-out: Minimal inhibitory concentration, Streptococcus agalactiae",75 µg/mL
same,MIC,"[7]; Pseudomonas aeruginosa, ATCC27853, ATCC 27853, CAMHB, WST colourimetric, 37 °C 6 h, triplicate, read-out: Minimal inhibitory concentration, Pseudomonas aeruginosa",1 µg/mL
same,MIC,[8],1 µg/mL
same,MIC,"[9]; Bacillus cereus, ATCC10876, ATCC 10876, MH broth, WST colourimetric, 37 °C 6 h, triplicate, read-out: Minimal inhibitory concentration, Bacillus cereus",1 µg/mL
same,MIC,"[10]; Streptococcus equi, ATCC43079, ATCC 43079, BHI broth, WST colourimetric, 37 °C 6 h, triplicate, read-out: Minimal inhibitory concentration, Streptococcus equi subsp. zooepidemicus",45 µg/mL
same,MIC,"[11]; Staphylococcus aureus, ATCC6538, ATCC 6538, MH broth, WST colourimetric, 37 °C 6 h, triplicate, read-out: Minimal inhibitory concentration, Staphylococcus aureus",1 µg/mL
same,MIC,"[12]; Streptococcus dysgalactiae, ATCC27957, ATCC 27957, BHI broth, WST colourimetric, 37 °C 6 h, triplicate, read-out: Minimal inhibitory concentration, Streptococcus dysgalactiae",15 µg/mL
ILGPALRIGGRIAGRIAGKLIGDAINRHRERNRQRRG [PD-CATH],"minimum inhibitory concentration, range over strains",[13],200 to 10300 nM
same,"MICs, range over field isolates",[14],0.8 to 5 µg/mL
same,"Minimal inhibitory concentration, Staphylococcus epidermidis",[2]; 6 h,3 (0.7) μg/mL
same,"Minimal inhibitory concentration, Corynebacterium simulans",Corynebacterium simulans; 6 h,1 µg/mL
same,"Minimal inhibitory concentration, Streptococcus uberis",Streptococcus uberis; 6 h,5 (1.2) μg/mL
same,"Minimal inhibitory concentration, Staphylococcus chromogenes",[3]; 6 h,4 (1.0) μg/mL
same,"Minimal inhibitory concentration, Staphylococcus xylosus",Staphylococcus xylosus; 6 h,3 (0.7) μg/mL
same,"Minimal inhibitory concentration, Glutamicibacter halophytocola",[4]; 6 h,1 µg/mL
same,"Cell viability ± SD, HaCaT",HaCaT cells; 64 μg/mL peptide,100.2 ± 0.2%
same,"Cell viability ± SD, HaCaT",HaCaT cells; 160 μg/mL peptide,11.4 ± 0.5%
same,Haemolytic activity against bovine erythrocytes,"bovine erythrocytes; 10 μg/mL, 2% (v/v) erythrocytes in PBS pH 7.4, 37 °C 1 h, mean ± SD",0.4 ± 0.2%
same,Haemolytic activity against bovine erythrocytes,"bovine erythrocytes; 20 μg/mL, 2% erythrocytes in PBS pH 7.4, 37 °C 1 h",0.7 ± 0.4%
same,Haemolytic activity against bovine erythrocytes,"bovine erythrocytes; 40 μg/mL, 2% erythrocytes in PBS pH 7.4, 37 °C 1 h",2.9 ± 0.2%
same,Haemolytic activity against bovine erythrocytes,"bovine erythrocytes; 80 μg/mL, 2% erythrocytes in PBS pH 7.4, 37 °C 1 h",3.5 ± 0.2%
same,antibacterial activity after incubation with serum,E. coli (ATCC 25922),remained unaffected under all the tested conditions
same,"Minimal inhibitory concentration, Enterococcus faecalis","[5]; ATCC 29212, 6 h",6 (1.5) μg/mL
same,"Minimal inhibitory concentration, Streptococcus agalactiae","[6]; ATCC 27956, 6 h",8 (2.0) μg/mL
same,"Minimal inhibitory concentration, Pseudomonas aeruginosa","[7]; ATCC 27853, 6 h",42 (10.3) μg/mL
same,"Minimal inhibitory concentration, Bacillus cereus","[9]; ATCC 10876, 6 h",6 (1.5) μg/mL
same,"Minimal inhibitory concentration, Streptococcus equi subsp. zooepidemicus","[10]; ATCC 43079, 6 h",17 (4.2) μg/mL
same,"Minimal inhibitory concentration, Staphylococcus aureus","[11]; ATCC 6538, 6 h",3 (0.7) μg/mL
same,"Minimal inhibitory concentration, Streptococcus dysgalactiae","[12]; ATCC 27957, 6 h",18 (4.4) μg/mL
same,"MICs, range over all bacterial species in the test panel",[15],2 to 42 µg/mL
same,"Cell viability ± SD, PK15",PK15 cells; 64 μg/mL peptide,43.6 ± 1.7%
same,"Cell viability ± SD, PK15",PK15 cells; 160 μg/mL peptide,7.4 ± 0.2%
